In patent publication US20160106102A1, “KNOWN AND NEW HETEROCYCLIC COMPOUNDS AS PEST CONTROL AGENTS” (BAYER CROPSCIENCE AKTIENGESELLSCHAFT, priority 2013, published 2016):

system: Myzus persicae; test: Myzus persicae - sachet test; type: in vivo; conditions: application rate of 30 ppm in nutrient medium; 100% = all animals killed
Experimental: Myzus persicae—Sachet Test Solvent: 2% by vol. of N-methylpyrrolidone • 2% by vol. of diacetone alcohol To produce an appropriate active ingredient formulation, the active ingredient is mixed with the specified amounts of solvent and the concentrate is diluted to the desired concentration with water. The active ingredient formulation is added to a specific nutrient medium in the desired concentration by pipetting. This plate is sealed and combined with a further plate populated with the green peach aphid (Myzus persicae). After the desired time, the kill in % is determined. 100% means that all the animals have been killed; 0% means that no animals have been killed.

`Cc1ccccc1Cn1cnc(NC(=O)c2cccnc2)n1` [Compound I-2-23] and `O=C(Nc1ccn(Cc2c(F)cccc2F)n1)c1cccnc1` [Compound I-1-68] are the same in “efficacy (kill in %)” value: 100% for the first, 100% for the second.

`Cn1ncc(NC(=O)c2cccnc2)n1` [Compound I-3-2] and `CC(C)n1ncc(NC(=O)c2cccnc2)n1` [Compound I-3-10] are the same in “efficacy (kill in %)” value: 100% for the first, 100% for the second.

Compared with `CSc1c(C#N)c(NC(=O)c2cccnc2)nn1C` [Compound I-1-270], `CCc1nc(NC(=O)c2cccnc2)nn1C` [Compound I-2-17] is higher in “efficacy (kill in %)” value: 80% for the first, 100% for the second.

`Cc1cc(NC(=O)c2cccnc2)nn1Cc1ccc(Cl)c(Cl)n1` [Compound I-1-301] and `Cc1cc(NC(=O)c2cccnc2)nn1Cc1ccc2nsnc2c1` [Compound I-1-339] are the same in “efficacy (kill in %)” value: 100% for the first, 100% for the second.

`Cc1cc(NC(=O)c2cccnc2)nn1Cc1ccc2c(c1)CCCC2` [Compound I-1-158] and `Cc1cc(NC(=O)c2cncc(Br)c2)nn1Cc1ccccc1` [Compound I-1-99] are the same in “efficacy (kill in %)” value: 100% for the first, 100% for the second.

`O=C(Nc1cnn(-c2ncc(C(F)(F)F)cc2Cl)n1)c1cccnc1` [Compound I-3-5] and `O=C(Nc1cnn(-c2ncccc2Cl)n1)c1cccnc1` [Compound I-3-16] are the same in “efficacy (kill in %)” value: 100% for the first, 100% for the second.

`CCS(=O)(=O)n1nc(NC(=O)c2cccnc2)cc1C` [Compound I-1-278] and `COC(=O)c1cc(NC(=O)c2cccnc2)nn1C` [Compound I-1-138] are the same in “efficacy (kill in %)” value: 100% for the first, 100% for the second.

`Cc1c(C#N)c(NC(=O)c2cccnc2)nn1Cc1ncccn1` [Compound I-1-194] and `Cc1cc(NC(=O)c2cccnc2)nn1C=C(F)c1ccc(Cl)cn1` [Compound I-1-306] are the same in “efficacy (kill in %)” value: 100% for the first, 100% for the second.

`Cc1cc(NC(=O)c2cccnc2)nn1Cn1c(=O)n(C)c(=O)n1C` [Compound I-1-145] and `CC(C)(C)c1ccc(Cn2ccc(NC(=O)c3cccnc3)n2)cc1` [Compound I-1-75] are the same in “efficacy (kill in %)” value: 100% for the first, 100% for the second.

`Cc1cc(NC(=O)c2ccnnc2)nn1-c1ccccn1` [Compound I-1-249] and `COc1ccc(Cn2ccc(NC(=O)c3cccnc3)n2)cc1` [Compound I-1-78] are the same in “efficacy (kill in %)” value: 100% for the first, 100% for the second.

`O=C(Nc1ccn(Cc2cccc(C(F)(F)F)c2)n1)c1ccc(Cl)nc1` [Compound I-1-87] and `O=C(Nc1ccn(Cc2cccc(C(F)(F)F)c2)n1)c1cccnc1` [Compound I-1-71] are the same in “efficacy (kill in %)” value: 100% for the first, 100% for the second.

In the case of `Cc1cc(N(Cc2nc(-c3ccccc3)no2)C(=O)c2cccnc2)nn1Cc1nc(-c2ccccc2)no1` [Compound I-1-305], the “efficacy (kill in %)” value is reported as 100%.

system: not listed separately; test: log P determination by LC-MS in the acidic range; type: physicochemical; conditions: LC-MS in the acidic range
From the text: The LC-MS determination in the acidic range is effected at pH 2.7 using 0.1% aqueous formic acid and acetonitrile (contains 0.1% formic acid) as eluents, linear gradient from 10% acetonitrile to 95% acetonitrile. Alternatively, the determination is effected in the acidic range at pH 2.3 using 0.1% aqueous phosphoric acid and acetonitrile as eluents; linear gradient from 10% acetonitrile to 95% acetonitrile.

Going from `CSc1c(C#N)c(NC(=O)c2cccnc2)nn1C` [Compound I-1-270] to `Cc1c(C#N)c(NC(=O)c2cccnc2)nn1Cc1ncccn1` [Compound I-1-194], the “log P (acid)” value falls from 0.96 to 0.63.

Going from `Cc1cc(NC(=O)c2cccnc2)nn1Cc1ccc(Cl)c(Cl)n1` [Compound I-1-301] to `Cc1cc(NC(=O)c2cccnc2)nn1Cc1ccc2nsnc2c1` [Compound I-1-339], the “log P (acid)” value falls from 2.06 to 1.61.

`Cc1cc(NC(=O)c2cccnc2)nn1Cc1ccc2c(c1)CCCC2` [Compound I-1-158] and `Cc1cc(NC(=O)c2cncc(Br)c2)nn1Cc1ccccc1` [Compound I-1-99] are within 0.2 log units of each other in “log P (acid)” value: 2.73 for the first, 2.58 for the second.

Compared with `CCS(=O)(=O)n1nc(NC(=O)c2cccnc2)cc1C` [Compound I-1-278], `COC(=O)c1cc(NC(=O)c2cccnc2)nn1C` [Compound I-1-138] is lower in “log P (acid)” value: 1.29 for the first, 1.05 for the second.

First: Cc1cc(NC(=O)c2cccnc2)nn1Cn1c(=O)n(C)c(=O)n1C [Compound I-1-145]
Second: Cc1cc(NC(=O)c2cccnc2)nn1C=C(F)c1ccc(Cl)cn1 [Compound I-1-306]
The “log P (acid)” value of the first is lower: 0.82 for the first, 2.31 for the second.

First: Cc1cc(NC(=O)c2ccnnc2)nn1-c1ccccn1 [Compound I-1-249]
Second: O=C(Nc1ccn(Cc2c(F)cccc2F)n1)c1cccnc1 [Compound I-1-68]
The “log P (acid)” value of the first is higher: 1.83 for the first, 1.55 for the second.

First: COc1ccc(Cn2ccc(NC(=O)c3cccnc3)n2)cc1 [Compound I-1-78]
Second: CC(C)(C)c1ccc(Cn2ccc(NC(=O)c3cccnc3)n2)cc1 [Compound I-1-75]
The “log P (acid)” value of the first is lower: 1.55 for the first, 2.68 for the second.

Going from `O=C(Nc1ccn(Cc2cccc(C(F)(F)F)c2)n1)c1ccc(Cl)nc1` [Compound I-1-87] to `O=C(Nc1ccn(Cc2cccc(C(F)(F)F)c2)n1)c1cccnc1` [Compound I-1-71], the “log P (acid)” value falls from 2.82 to 2.07.

In the case of `Cc1cc(N(Cc2nc(-c3ccccc3)no2)C(=O)c2cccnc2)nn1Cc1nc(-c2ccccc2)no1` [Compound I-1-305], the “log P (acid)” value is reported as 3.26.

same assay, conditions: Table 2, compounds of the formula (I-2); acidic range pH 2.7 or pH 2.3

Going from `Cc1ccccc1Cn1cnc(NC(=O)c2cccnc2)n1` [Compound I-2-23] to `CCc1nc(NC(=O)c2cccnc2)nn1C` [Compound I-2-17], the “log P (acid)” value falls from 1.23 to 0.01.

same assay, conditions: Table 3; HPLC on reversed-phase column (C 18), 55° C., acidic range (pH 2.7 or pH 2.3)

First: Cn1ncc(NC(=O)c2cccnc2)n1 [Compound I-3-2]
Second: CC(C)n1ncc(NC(=O)c2cccnc2)n1 [Compound I-3-10]
The “log P (acid)” value of the first is lower: 0.38 for the first, 1.09 for the second.

First: O=C(Nc1cnn(-c2ncc(C(F)(F)F)cc2Cl)n1)c1cccnc1 [Compound I-3-5]
Second: O=C(Nc1cnn(-c2ncccc2Cl)n1)c1cccnc1 [Compound I-3-16]
The “log P (acid)” value of the first is higher: 2.12 for the first, 1.32 for the second.
